# Measured values taken from the supplement of paper PMC6045584.
# ± gives the standard deviation of the averaged measurements.
# Columns and labels:
# DASATINIB = compound: Cc1nc(Nc2ncc(C(=O)Nc3c(C)cccc3Cl)s2)cc(N2CCN(CCO)CC2)n1 [DASATINIB]; experiment: surviving fraction relative to DMSO-only wells; higher = less growth inhibition; details: exposure time: 5 days
# Summary of the method: (§1)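 Log-phase tumour cell lines, 250–500 cells per well in 384-well plates, received inhibitors at 0.5, 1, 5, 10, 50, 100, 500 and 1000 nM continuously for five days, starting 24 hours after seeding. Viability was quantified with CellTiter-Glo luminescence and normalised to the median of DMSO-only wells to give surviving fraction. Three screens were run per line, and a line stayed in only with replicate Pearson r >0.7 and median Z' >0.3.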
# OLAPARIB = compound: O=C(c1cc(Cc2n[nH]c(=O)c3ccccc23)ccc1F)N1CCN(C(=O)C2CC2)CC1 [OLAPARIB]; experiment: as above; details: exposure time: 5 days
# Summary of the method: as §1
test system,measurement,setting,value
SG28 HEADNECK,surviving fraction,DASATINIB; 0.5 nM,0.749 ± 0.055
same,surviving fraction,DASATINIB; 1 nM,0.772 ± 0.04
same,surviving fraction,DASATINIB; 5 nM,0.687 ± 0.028
same,surviving fraction,DASATINIB; 10 nM,0.534 ± 0.087
same,surviving fraction,DASATINIB; 50 nM,0.439 ± 0.033
same,surviving fraction,DASATINIB; 100 nM,0.329 ± 0.018
same,surviving fraction,DASATINIB; 500 nM,0.213 ± 0.016
same,surviving fraction,DASATINIB; 1000 nM,0.204 ± 0.032
same,surviving fraction,OLAPARIB; 0.5 nM,1.12 ± 0.13
same,surviving fraction,OLAPARIB; 1 nM,0.982 ± 0.12
same,surviving fraction,OLAPARIB; 5 nM,1.02 ± 0.09
same,surviving fraction,OLAPARIB; 10 nM,0.952 ± 0.088
same,surviving fraction,OLAPARIB; 50 nM,0.914 ± 0.13
same,surviving fraction,OLAPARIB; 100 nM,0.887 ± 0.13
same,surviving fraction,OLAPARIB; 500 nM,0.928 ± 0.024
same,surviving fraction,OLAPARIB; 1000 nM,0.926 ± 0.065
CME SYNOVIAL,surviving fraction,DASATINIB; 0.5 nM,0.831 ± 0.15
same,surviving fraction,DASATINIB; 1 nM,0.827 ± 0.1
same,surviving fraction,DASATINIB; 5 nM,0.752 ± 0.088
same,surviving fraction,DASATINIB; 10 nM,0.713 ± 0.1
same,surviving fraction,DASATINIB; 50 nM,0.598 ± 0.028
same,surviving fraction,DASATINIB; 100 nM,0.464 ± 0.042
same,surviving fraction,DASATINIB; 500 nM,0.411 ± 0.075
same,surviving fraction,DASATINIB; 1000 nM,0.383 ± 0.036
same,surviving fraction,OLAPARIB; 0.5 nM,1.29 ± 0.3
same,surviving fraction,OLAPARIB; 1 nM,1.27 ± 0.059
same,surviving fraction,OLAPARIB; 5 nM,1.23 ± 0.11
same,surviving fraction,OLAPARIB; 10 nM,1.16 ± 0.22
same,surviving fraction,OLAPARIB; 50 nM,0.737 ± 0.14
same,surviving fraction,OLAPARIB; 100 nM,0.616 ± 0.051
same,surviving fraction,OLAPARIB; 500 nM,0.386 ± 0.053
same,surviving fraction,OLAPARIB; 1000 nM,0.303 ± 0.021
MDAMB361 BREAST,surviving fraction,DASATINIB; 0.5 nM,0.678 ± 0.12
same,surviving fraction,DASATINIB; 1 nM,0.733 ± 0.081
same,surviving fraction,DASATINIB; 5 nM,0.668 ± 0.087
same,surviving fraction,DASATINIB; 10 nM,0.711 ± 0.16
same,surviving fraction,DASATINIB; 50 nM,0.799 ± 0.058
same,surviving fraction,DASATINIB; 100 nM,0.781 ± 0.039
same,surviving fraction,DASATINIB; 500 nM,0.75 ± 0.077
same,surviving fraction,DASATINIB; 1000 nM,0.821 ± 0.13
same,surviving fraction,OLAPARIB; 0.5 nM,0.82 ± 0.026
same,surviving fraction,OLAPARIB; 1 nM,0.793 ± 0.076
same,surviving fraction,OLAPARIB; 5 nM,0.773 ± 0.094
same,surviving fraction,OLAPARIB; 10 nM,0.767 ± 0.042
same,surviving fraction,OLAPARIB; 50 nM,0.612 ± 0.064
same,surviving fraction,OLAPARIB; 100 nM,0.603 ± 0.048
same,surviving fraction,OLAPARIB; 500 nM,0.577 ± 0.051
same,surviving fraction,OLAPARIB; 1000 nM,0.523 ± 0.036
MCF7 BREAST,surviving fraction,DASATINIB; 0.5 nM,0.803 ± 0.048
same,surviving fraction,DASATINIB; 1 nM,0.798 ± 0.043
same,surviving fraction,DASATINIB; 5 nM,0.816 ± 0.035
same,surviving fraction,DASATINIB; 10 nM,0.795 ± 0.019
same,surviving fraction,DASATINIB; 50 nM,0.787 ± 0.051
same,surviving fraction,DASATINIB; 100 nM,0.741 ± 0.048
same,surviving fraction,DASATINIB; 500 nM,0.741 ± 0.028
same,surviving fraction,DASATINIB; 1000 nM,0.739 ± 0.037
same,surviving fraction,OLAPARIB; 0.5 nM,0.891 ± 0.015
same,surviving fraction,OLAPARIB; 1 nM,0.941 ± 0.014
same,surviving fraction,OLAPARIB; 5 nM,0.946 ± 0.085
same,surviving fraction,OLAPARIB; 10 nM,0.907 ± 0.037
same,surviving fraction,OLAPARIB; 50 nM,0.96 ± 0.039
same,surviving fraction,OLAPARIB; 100 nM,0.906 ± 0.051
same,surviving fraction,OLAPARIB; 500 nM,0.95 ± 0.026
same,surviving fraction,OLAPARIB; 1000 nM,0.943 ± 0.043
CAL120 BREAST,surviving fraction,DASATINIB; 0.5 nM,0.877 ± 0.098
same,surviving fraction,DASATINIB; 1 nM,0.882 ± 0.025
same,surviving fraction,DASATINIB; 5 nM,0.861 ± 0.013
same,surviving fraction,DASATINIB; 10 nM,0.786 ± 0.062
same,surviving fraction,DASATINIB; 50 nM,0.497 ± 0.022
same,surviving fraction,DASATINIB; 100 nM,0.358 ± 0.021
same,surviving fraction,DASATINIB; 500 nM,0.217 ± 0.0088
same,surviving fraction,DASATINIB; 1000 nM,0.192 ± 0.015
same,surviving fraction,OLAPARIB; 0.5 nM,0.9857 ± 0.0086
same,surviving fraction,OLAPARIB; 1 nM,0.998 ± 0.018
same,surviving fraction,OLAPARIB; 5 nM,1 ± 0.023
same,surviving fraction,OLAPARIB; 10 nM,0.973 ± 0.024
same,surviving fraction,OLAPARIB; 50 nM,0.979 ± 0.01
same,surviving fraction,OLAPARIB; 100 nM,0.942 ± 0.04
same,surviving fraction,OLAPARIB; 500 nM,0.892 ± 0.013
same,surviving fraction,OLAPARIB; 1000 nM,0.825 ± 0.043
HU09 BONE,surviving fraction,DASATINIB; 0.5 nM,0.863 ± 0.056
same,surviving fraction,DASATINIB; 1 nM,0.845 ± 0.025
same,surviving fraction,DASATINIB; 5 nM,0.805 ± 0.086
same,surviving fraction,DASATINIB; 10 nM,0.75 ± 0.056
same,surviving fraction,DASATINIB; 50 nM,0.392 ± 0.051
same,surviving fraction,DASATINIB; 100 nM,0.214 ± 0.019
same,surviving fraction,DASATINIB; 500 nM,0.129 ± 0.007
same,surviving fraction,DASATINIB; 1000 nM,0.12 ± 0.018
same,surviving fraction,OLAPARIB; 0.5 nM,1.01 ± 0.094
same,surviving fraction,OLAPARIB; 1 nM,0.974 ± 0.031
same,surviving fraction,OLAPARIB; 5 nM,1.04 ± 0.13
same,surviving fraction,OLAPARIB; 10 nM,1.13 ± 0.083
same,surviving fraction,OLAPARIB; 50 nM,0.896 ± 0.063
same,surviving fraction,OLAPARIB; 100 nM,1.09 ± 0.08
same,surviving fraction,OLAPARIB; 500 nM,0.851 ± 0.061
same,surviving fraction,OLAPARIB; 1000 nM,0.779 ± 0.096
JIMT1 BREAST,surviving fraction,DASATINIB; 0.5 nM,0.859 ± 0.034
same,surviving fraction,DASATINIB; 1 nM,0.844 ± 0.033
same,surviving fraction,DASATINIB; 5 nM,0.802 ± 0.034
same,surviving fraction,DASATINIB; 10 nM,0.68 ± 0.024
same,surviving fraction,DASATINIB; 50 nM,0.394 ± 0.041
same,surviving fraction,DASATINIB; 100 nM,0.182 ± 0.018
same,surviving fraction,DASATINIB; 500 nM,0.0683 ± 0.012
same,surviving fraction,DASATINIB; 1000 nM,0.0518 ± 0.0019
same,surviving fraction,OLAPARIB; 0.5 nM,0.917 ± 0.035
same,surviving fraction,OLAPARIB; 1 nM,0.911 ± 0.024
same,surviving fraction,OLAPARIB; 5 nM,0.9352 ± 0.0078
same,surviving fraction,OLAPARIB; 10 nM,0.907 ± 0.023
same,surviving fraction,OLAPARIB; 50 nM,0.934 ± 0.026
same,surviving fraction,OLAPARIB; 100 nM,0.9217 ± 0.0036
same,surviving fraction,OLAPARIB; 500 nM,0.9207 ± 0.0084
same,surviving fraction,OLAPARIB; 1000 nM,0.846 ± 0.025
SG31 HEADNECK,surviving fraction,DASATINIB; 0.5 nM,0.892 ± 0.091
same,surviving fraction,DASATINIB; 1 nM,0.878 ± 0.19
same,surviving fraction,DASATINIB; 5 nM,0.722 ± 0.013
same,surviving fraction,DASATINIB; 10 nM,0.649 ± 0.081
same,surviving fraction,DASATINIB; 50 nM,0.535 ± 0.02
same,surviving fraction,DASATINIB; 100 nM,0.44 ± 0.042
same,surviving fraction,DASATINIB; 500 nM,0.391 ± 0.045
same,surviving fraction,DASATINIB; 1000 nM,0.373 ± 0.016
same,surviving fraction,OLAPARIB; 0.5 nM,1.17 ± 0.27
same,surviving fraction,OLAPARIB; 1 nM,1.09 ± 0.061
same,surviving fraction,OLAPARIB; 5 nM,1.02 ± 0.12
same,surviving fraction,OLAPARIB; 10 nM,0.985 ± 0.16
same,surviving fraction,OLAPARIB; 50 nM,0.932 ± 0.18
same,surviving fraction,OLAPARIB; 100 nM,0.908 ± 0.13
same,surviving fraction,OLAPARIB; 500 nM,0.946 ± 0.073
same,surviving fraction,OLAPARIB; 1000 nM,0.962 ± 0.073
SNU475 LIVER,surviving fraction,DASATINIB; 0.5 nM,0.799 ± 0.0098
same,surviving fraction,DASATINIB; 1 nM,0.774 ± 0.018
same,surviving fraction,DASATINIB; 5 nM,0.602 ± 0.021
same,surviving fraction,DASATINIB; 10 nM,0.519 ± 0.036
same,surviving fraction,DASATINIB; 50 nM,0.469 ± 0.02
same,surviving fraction,DASATINIB; 100 nM,0.349 ± 0.021
same,surviving fraction,DASATINIB; 500 nM,0.242 ± 0.025
same,surviving fraction,DASATINIB; 1000 nM,0.255 ± 0.032
same,surviving fraction,OLAPARIB; 0.5 nM,1 ± 0.079
same,surviving fraction,OLAPARIB; 1 nM,0.957 ± 0.032
same,surviving fraction,OLAPARIB; 5 nM,1 ± 0.039
same,surviving fraction,OLAPARIB; 10 nM,0.994 ± 0.07
same,surviving fraction,OLAPARIB; 50 nM,0.893 ± 0.059
same,surviving fraction,OLAPARIB; 100 nM,0.8737 ± 0.0067
same,surviving fraction,OLAPARIB; 500 nM,0.918 ± 0.013
same,surviving fraction,OLAPARIB; 1000 nM,0.838 ± 0.016
CASKI CERVIX,surviving fraction,DASATINIB; 0.5 nM,0.732 ± 0.045
same,surviving fraction,DASATINIB; 1 nM,0.777 ± 0.052
same,surviving fraction,DASATINIB; 5 nM,0.69 ± 0.024
same,surviving fraction,DASATINIB; 10 nM,0.474 ± 0.03
same,surviving fraction,DASATINIB; 50 nM,0.121 ± 0.0042
same,surviving fraction,DASATINIB; 100 nM,0.0747 ± 0.0047
same,surviving fraction,DASATINIB; 500 nM,0.0433 ± 0.0023
same,surviving fraction,DASATINIB; 1000 nM,0.0293 ± 0.00058
same,surviving fraction,OLAPARIB; 0.5 nM,0.921 ± 0.029
same,surviving fraction,OLAPARIB; 1 nM,0.947 ± 0.057
same,surviving fraction,OLAPARIB; 5 nM,0.993 ± 0.051
same,surviving fraction,OLAPARIB; 10 nM,0.982 ± 0.015
same,surviving fraction,OLAPARIB; 50 nM,0.859 ± 0.016
same,surviving fraction,OLAPARIB; 100 nM,0.844 ± 0.026
same,surviving fraction,OLAPARIB; 500 nM,0.749 ± 0.075
same,surviving fraction,OLAPARIB; 1000 nM,0.765 ± 0.068
